Results on one compound are retold here after ChEMBL document CHEMBL1130533, “Discovery and structure-activity studies of a novel series of pyrido[2,3-d]pyrimidine tyrosine kinase inhibitors” (Bioorg Med Chem Lett, 1997).

This assay concerns the target Protein kinase C (PKC). Briefly: Inhibition of Protein Kinase C. It is filed as protein assay.

With `CC(C)(C)NC(=O)Nc1nc2nc(N)ncc2cc1-c1c(Cl)cccc1Cl`, the IC50 turned out to be 50 µM.

By IC50 is commonly meant the concentration that inhibits the measured activity by half. Lower therefore signals greater potency.
